Test systems include COLO 205 colon; HS 578T breast; K-562 leukemia; KM12 colon; LOX IMVI melanoma; MALME-3M melanoma; MDA-MB-231 breast; OVCAR-8 ovarian; SF-539 CNS; SN12C renal.
What all share (test): DTP human tumour cell line panel, 48 h

One may read the TGI as the concentration at which net growth stops. Lower therefore signals greater sensitivity of the cells. Broadly, the GI50 is the concentration that inhibits growth by half.

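48-hour exposure; five concentrations; linearly interpolated endpoints. GI50 marks 50% less growth. At the TGI there is no net growth.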

`CC1=CC(C)C/C=C/C2C3OC3(C)C(C)C3C(Cc4c[nH]c5ccccc45)NC(=O)C23C(=O)C=CC(=O)C1O` (centres undefined): the TGI is 2 µM in the assay on COLO 205 colon; 56.5 µM in the assay on HS 578T breast; above 100 µM in the assay on K-562 leukemia; 30 µM in the assay on KM12 colon; 17.9 µM in the assay with LOX IMVI melanoma; 4.19 µM in the assay with MALME-3M melanoma. For the same compound, the TGI was 16.9 µM with MDA-MB-231 breast, 54.3 µM with OVCAR-8 ovarian, 29.8 µM in the assay with SF-539 CNS and 30.7 µM in the assay with SN12C renal.
`CN(C)CCCNC(=O)c1cc2[nH]c3c(cnc4ccc([N+](=O)[O-])cc43)c(=O)c2n1C`: the GI50 is 16.5 µM in the assay with COLO 205 colon; 18.1 µM in the assay on HS 578T breast; 15.8 µM with K-562 leukemia; 12 µM in the assay with KM12 colon; 14.4 µM with LOX IMVI melanoma; 21.3 µM in the assay with MALME-3M melanoma. The GI50 in the assay on MDA-MB-231 breast is 16.9 µM; with OVCAR-8 ovarian it was 20.2 µM; in the assay on SF-539 CNS, 17.6 µM; with SN12C renal, 20.8 µM. The TGI with COLO 205 colon amounted to 30.1 µM; with HS 578T breast it was 41.3 µM; in the assay on K-562 leukemia, 33.1 µM; in the assay with KM12 colon, 25.2 µM; with LOX IMVI melanoma, 27.5 µM; in the assay on MALME-3M melanoma it was 40.4 µM. Also, the total growth inhibition concentration (TGI) in the assay with MDA-MB-231 breast stood at 30.7 µM; with OVCAR-8 ovarian, 43.2 µM; in the assay on SF-539 CNS, 31.7 µM; with SN12C renal it was 35.4 µM.
Regarding `CC(=O)N(C)c1ccc(Nc2cc(C)[nH]c3ccc4ncnc4c23)cc1`, the TGI in the assay on COLO 205 colon amounted to 16 µM; with HS 578T breast it was 35.5 µM; with K-562 leukemia it was 74 µM; in the assay with KM12 colon, 27.6 µM; in the assay with LOX IMVI melanoma it was 15.9 µM; in the assay with MALME-3M melanoma, 17.5 µM. Besides, the total growth inhibition concentration (TGI) in the assay with MDA-MB-231 breast worked out at 30.4 µM; with OVCAR-8 ovarian, 21.5 µM; in the assay with SF-539 CNS, 18.6 µM; in the assay with SN12C renal, 34.9 µM.
Turning to `O=c1cnn(C/C=C/CBr)c(=O)[nH]1`, the TGI with COLO 205 colon was 41.9 µM; with HS 578T breast it was above 100 µM; in the assay on K-562 leukemia, 70.6 µM; in the assay on KM12 colon it was 32.7 µM; with LOX IMVI melanoma, 67.4 µM; with MALME-3M melanoma it was 32 µM. Besides, the TGI in the assay with MDA-MB-231 breast worked out at 45.6 µM; in the assay with OVCAR-8 ovarian, 54 µM; in the assay with SF-539 CNS, 31.6 µM; with SN12C renal it was 41.6 µM.
For the compound `COc1ccc(C2COc3cc(OC(C)=O)c(OC(C)=O)cc3C2)cc1` (centres undefined), the TGI in the assay on COLO 205 colon came to 44.4 µM; in the assay with K-562 leukemia, 80 µM; with KM12 colon it was 34 µM; in the assay with LOX IMVI melanoma, 37.2 µM; with MALME-3M melanoma it was 44.8 µM; in the assay with OVCAR-8 ovarian, 44.9 µM. For the same compound, the figures for the concentration for total growth inhibition (TGI) with SF-539 CNS and with SN12C renal were 37.8 µM and 32.9 µM, respectively.
Consider `O=C(O)c1ccc(Nc2c3ccccc3nc3ccccc23)cc1`, for which the TGI in the assay on COLO 205 colon, in the assay on K-562 leukemia, in the assay with KM12 colon, in the assay on LOX IMVI melanoma, in the assay on MALME-3M melanoma and with OVCAR-8 ovarian was above 100 µM throughout. The TGI in the assay with SF-539 CNS and with SN12C renal was above 100 µM each time.
Consider `c1nc(OCC2CCCCC2)c2[nH]cnc2n1`, for which the TGI in the assay with COLO 205 colon, with HS 578T breast, in the assay on K-562 leukemia, with KM12 colon, in the assay with LOX IMVI melanoma and in the assay on MALME-3M melanoma was above 100 µM each time. Moreover, the total growth inhibition concentration (TGI) in the assay on MDA-MB-231 breast, in the assay with OVCAR-8 ovarian, in the assay on SF-539 CNS and with SN12C renal was above 100 µM throughout.
In the case of `CC(C)(C)[Si](OC1CC(n2cnc3c(N)ncnc32)OC1CO)(c1ccccc1)c1ccccc1` (centres undefined), the TGI with COLO 205 colon was 88.1 µM; in the assay with K-562 leukemia, above 100 µM; with KM12 colon, 38.9 µM; in the assay on LOX IMVI melanoma, 31.7 µM; in the assay on MALME-3M melanoma it was 45.9 µM; with OVCAR-8 ovarian, 33.3 µM. In addition, the TGI was determined as 36.7 µM in the assay on SF-539 CNS and 43.3 µM with SN12C renal.
With `O=C(O)CC(CC(=O)O)C(=O)O`, the TGI with COLO 205 colon, in the assay on HS 578T breast, with K-562 leukemia, with KM12 colon, with LOX IMVI melanoma and in the assay on MALME-3M melanoma was above 100 µM in each case. In addition, the TGI in the assay on MDA-MB-231 breast, in the assay on OVCAR-8 ovarian, in the assay with SF-539 CNS and in the assay with SN12C renal was above 100 µM throughout.
With `Cc1cc(C)n(C(=C(C(Cl)=C(Cl)Cl)[N+](=O)[O-])n2nc(C)cc2C)n1`, the TGI with COLO 205 colon worked out at 3.76 µM; in the assay on HS 578T breast, 20.6 µM; in the assay with K-562 leukemia, 5 µM; in the assay on KM12 colon, 13.9 µM; in the assay with LOX IMVI melanoma, 4.69 µM; with MALME-3M melanoma, 7.86 µM. The TGI amounted to 27.8 µM in the assay with MDA-MB-231 breast, 9.22 µM with OVCAR-8 ovarian, 16.4 µM in the assay on SF-539 CNS and 15.9 µM in the assay with SN12C renal.
In the case of `O=C1C(Cl)N(c2ccc(Cl)cc2)C1c1c[nH]c2ccccc12` (centres undefined), the TGI with COLO 205 colon is 47.8 µM; with K-562 leukemia, 73.3 µM; in the assay on KM12 colon, above 100 µM; in the assay on MALME-3M melanoma, 25.6 µM; with OVCAR-8 ovarian, above 100 µM; with SF-539 CNS, 37.2 µM. Besides, the TGI in the assay with SN12C renal amounted to 36 µM.
Turning to `COc1ccc(N2C(=O)/C(=C(\C)c3cc4ccccc4oc3=O)N=C2c2cc([N+](=O)[O-])ccc2Cl)cc1`, the TGI is above 100 µM in the assay with COLO 205 colon; above 100 µM in the assay with K-562 leukemia; 87.4 µM in the assay on KM12 colon; above 100 µM with LOX IMVI melanoma; above 100 µM in the assay on MALME-3M melanoma; above 100 µM with OVCAR-8 ovarian. Besides, the TGI in the assay on SF-539 CNS and with SN12C renal was above 100 µM in each case.
For `C/C(=N\NC(=S)N1CCCCC1)c1nc2ncccc2[nH]1`, the total growth inhibition concentration (TGI) with COLO 205 colon was above 100 µM; with HS 578T breast, above 100 µM; with K-562 leukemia, 43.7 µM; with KM12 colon, above 100 µM; with LOX IMVI melanoma, above 100 µM; in the assay on MALME-3M melanoma it was above 100 µM. For the same compound, the TGI in the assay with MDA-MB-231 breast was above 100 µM; in the assay with OVCAR-8 ovarian, 34.8 µM; in the assay on SF-539 CNS, 21.3 µM; in the assay with SN12C renal, above 100 µM.

Source of the values: PubChem BioAssay (NCI).
